Like-named read-outs stand apart in the source and are kept apart here.
Experiments:
human recombinant MAO A = target: T1, human recombinant MAO A (Homo sapiens, UniProt P21397); experiment: biochemical; assay type: biochemical; details: for inhibition at 10 µM: read-out: hMAO-A % inhibition at 10 μM
T1 construct: purchased Sigma Aldrich (Milan, Italy); host or cells: baculovirus-infected insect cells
T1 sequence (P21397 1-527): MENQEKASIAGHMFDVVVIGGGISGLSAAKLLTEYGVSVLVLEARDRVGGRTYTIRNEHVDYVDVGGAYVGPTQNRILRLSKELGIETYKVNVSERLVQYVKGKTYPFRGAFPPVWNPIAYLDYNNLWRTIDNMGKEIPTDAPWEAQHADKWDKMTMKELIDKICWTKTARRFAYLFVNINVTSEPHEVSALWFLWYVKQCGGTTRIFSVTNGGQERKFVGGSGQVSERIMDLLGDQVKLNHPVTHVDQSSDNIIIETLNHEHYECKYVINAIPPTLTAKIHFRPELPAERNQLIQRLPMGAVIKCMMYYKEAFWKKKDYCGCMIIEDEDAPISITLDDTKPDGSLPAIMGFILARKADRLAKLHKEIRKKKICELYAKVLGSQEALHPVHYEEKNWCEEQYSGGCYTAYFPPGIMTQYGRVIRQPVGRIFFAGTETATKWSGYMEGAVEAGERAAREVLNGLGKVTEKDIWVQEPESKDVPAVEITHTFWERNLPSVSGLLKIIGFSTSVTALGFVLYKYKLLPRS
Description: (§1) Human isoforms of MAOs (from baculovirus-infected insect cells) and ChEs (human recombinant AChE and BChE from human serum), purchased from Sigma Aldrich (Milan, Italy), were used for inhibition assays. Experiments were performed in 96-well plates (Greiner Bio-One, Kremsmünster, Austria) on the Infinite M1000 Pro plate reader (Tecan, Cernusco s.N., Italy), using already published protocols.
After the addition of human recombinant MAO A (250 U/mg) or MAO B (59 U/mg) and a further 30 min of incubation, NaOH was added, and the fluorescence read at 310/400 nm excitation/emission wavelength. […] IC50 is expressed as mean ± SD of three independent measurements, each one performed in duplicate. For the kinetic study on the inhibition mechanism of MAO B, three diverse scalar concentrations of the inhibitor and seven concentrations of kynuramine were used.
(§2) The IC50 values, Michaelis–Menten curve fitting and inhibition constant (Ki) were calculated by nonlinear regression, using Prism software.

human recombinant MAO B = target: T2, human recombinant MAO B (Homo sapiens, UniProt P27338); experiment: biochemical; assay type: biochemical; details: for inhibition at 10 µM: read-out: hMAO-B % inhibition at 10 μM
T2 construct: purchased Sigma Aldrich (Milan, Italy); host or cells: baculovirus-infected insect cells
T2 sequence (P27338 1-520): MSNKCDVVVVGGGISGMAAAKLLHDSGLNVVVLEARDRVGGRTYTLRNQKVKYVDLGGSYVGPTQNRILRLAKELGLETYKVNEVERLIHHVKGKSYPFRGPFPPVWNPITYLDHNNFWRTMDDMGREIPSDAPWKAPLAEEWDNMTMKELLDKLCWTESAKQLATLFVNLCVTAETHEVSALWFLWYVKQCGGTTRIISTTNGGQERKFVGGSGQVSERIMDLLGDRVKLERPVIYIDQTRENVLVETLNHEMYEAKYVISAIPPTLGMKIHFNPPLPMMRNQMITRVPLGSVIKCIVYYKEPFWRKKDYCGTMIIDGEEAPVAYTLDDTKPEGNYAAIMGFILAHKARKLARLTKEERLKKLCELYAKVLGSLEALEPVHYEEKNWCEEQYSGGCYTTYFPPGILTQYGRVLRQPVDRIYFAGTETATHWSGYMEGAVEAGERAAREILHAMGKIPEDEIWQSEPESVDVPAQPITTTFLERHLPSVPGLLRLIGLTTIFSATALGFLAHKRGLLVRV

BChE from human serum = target: T3, BChE from human serum (Homo sapiens, UniProt P06276); experiment: biochemical; details: for hBChE % inhibition at 10 μM / inhibition at 10 µM: 10 μM concentration, mean ± S.D. (n = 3), n.i. = no inhibition at 10 μM; for inhibition at 10 µM: read-out: hBChE % inhibition at 10 μM
T3 construct: ChEs (human recombinant AChE and BChE from human serum), purchased from Sigma Aldrich (Milan, Italy); purchased Sigma Aldrich (Milan, Italy); host or cells: human serum (natural source)
T3 sequence (P06276 29-602): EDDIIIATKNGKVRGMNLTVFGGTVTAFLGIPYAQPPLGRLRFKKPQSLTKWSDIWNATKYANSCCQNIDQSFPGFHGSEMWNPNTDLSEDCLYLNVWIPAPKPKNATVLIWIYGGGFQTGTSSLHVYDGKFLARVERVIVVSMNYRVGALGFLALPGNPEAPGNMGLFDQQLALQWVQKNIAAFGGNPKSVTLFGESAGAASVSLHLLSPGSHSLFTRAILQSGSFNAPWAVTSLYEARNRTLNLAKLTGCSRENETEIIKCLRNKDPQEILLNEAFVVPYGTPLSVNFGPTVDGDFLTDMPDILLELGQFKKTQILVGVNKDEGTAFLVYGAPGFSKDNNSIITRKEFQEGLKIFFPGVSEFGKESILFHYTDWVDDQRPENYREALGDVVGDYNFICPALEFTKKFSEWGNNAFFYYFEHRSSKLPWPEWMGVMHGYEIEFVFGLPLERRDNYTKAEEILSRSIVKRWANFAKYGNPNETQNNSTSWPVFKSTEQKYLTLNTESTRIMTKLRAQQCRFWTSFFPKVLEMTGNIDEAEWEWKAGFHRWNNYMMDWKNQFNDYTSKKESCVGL
Description: as §1
(§3) The inhibition of human recombinant AChE or BChE from human serum was determined by applying Ellman’s spectrophotometric method as described in previously reported protocols. The AChE activity was determined in an assay solution containing AChE (0.09 U/mL), 5,5′-dithiobis(2-nitrobenzoic acid) (i.e., the Ellman’s reagent, 0.33 mM), the test compound (10 μM concentration, or seven scalar concentrations for compounds achieving > 60% enzyme inhibition at 10 μM), in 0.1 M PBS pH 8.0. […] The BChE inhibitory activity was similarly determined by using BChE (0.09 U/mL) and butyrylthiocholine iodide (5 μM) as the substrate.
as §2

human recombinant AChE = target: T4, human recombinant AChE (Homo sapiens, UniProt P22303); experiment: biochemical; details: for inhibition at 10 µM: read-out: hAChE % inhibition at 10 μM
T4 construct: purchased Sigma Aldrich (Milan, Italy)
T4 sequence (P22303 32-614): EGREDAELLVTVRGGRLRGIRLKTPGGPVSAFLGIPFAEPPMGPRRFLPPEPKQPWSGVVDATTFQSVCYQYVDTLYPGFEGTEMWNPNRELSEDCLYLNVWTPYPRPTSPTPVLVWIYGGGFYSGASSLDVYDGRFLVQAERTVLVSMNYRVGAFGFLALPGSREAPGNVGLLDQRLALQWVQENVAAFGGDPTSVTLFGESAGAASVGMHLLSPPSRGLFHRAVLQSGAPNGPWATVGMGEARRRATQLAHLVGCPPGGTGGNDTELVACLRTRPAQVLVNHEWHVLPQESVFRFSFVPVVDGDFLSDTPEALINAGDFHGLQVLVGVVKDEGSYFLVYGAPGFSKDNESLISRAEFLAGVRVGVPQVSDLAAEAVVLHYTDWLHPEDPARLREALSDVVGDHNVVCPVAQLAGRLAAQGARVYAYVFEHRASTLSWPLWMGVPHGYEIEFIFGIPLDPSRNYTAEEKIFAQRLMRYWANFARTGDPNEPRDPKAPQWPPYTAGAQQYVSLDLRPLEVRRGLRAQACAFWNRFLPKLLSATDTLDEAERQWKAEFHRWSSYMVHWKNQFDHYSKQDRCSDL
Description: as §1, §3, §2

[1] = system: MCF-7, human breast carcinoma cell; experiment: Antiproliferative activity, sulforhodamine-B (SRB) assay, MCF-7; assay type: cell-based; details: read-out: Antiproliferative activity IC50, MCF-7
Description: (§4) The SK-OV-3 ovarian cancer cell line, MCF-7 breast cancer line and HCT-116 colon cancer cell line were obtained from the National Cancer Institute, Biological Testing Branch (Frederick, MD, USA), and maintained in the logarithmic phase at 37 °C in a 5% CO2 humidified air in RPMI 1640 medium supplemented with 10% fetal calf serum, 2 mM glutamine, penicillin (100 U/mL) and streptomycin (0.1 mg/mL).
(§5) The growth inhibitory effects of compounds under investigation were compared to those of cisplatin (CDDP) and doxorubicin (DXR), used as positive controls, and evaluated by using the sulforhodamine-B (SRB) assay. Briefly, cells were seeded into 96-well microtiter plates in 100 µL of the appropriate culture medium at plating densities at 2500, 5000 and 8000 cells/well for MCF-7, HCT-116 and SKOV-3, respectively, depending upon the doubling time of individual cell lines. After seeding, microtiter plates were incubated at 37 °C for 24 h before adding the test compounds. After 24 h, several samples of each cell line were fixed in situ with cold trichloroacetic acid (TCA) to represent a measurement of the cell population at the time of compound addition. The test compounds were freshly dissolved in dimethyl sulfoxide (DMSO, 10^−2 M) and gradually diluted to different concentrations (0.79–50 µM) with a complete medium, so that the maximum DMSO/well ratio was 0.5% v/v. After the addition of different compound concentrations to triplicate wells, the plates were further incubated at 37 °C for 72 h. Cells were fixed in situ by the gentle addition of 50 µL of cold 50% w/v TCA (final concentration 10%) and incubated for 1 h at 4 °C. The supernatant was discarded, and the plates were washed with tap water and air-dried. SRB solution (100 µL) at 0.4% (w/v) in 1% acetic acid was added to each well, and the plates were incubated for 30 min at room temperature. After staining, the unbound dye was removed by washing with 1% acetic acid and the plates were air-dried. The bound stain was then solubilized with 10mM Trizma base and the absorbance was read on an automatic plate reader at 570 nm.

[2] = system: SK-OV-3, human ovarian carcinoma with intrinsic resistance to cisplatin; experiment: Antiproliferative activity, sulforhodamine-B (SRB) assay, SK-OV-3; assay type: cell-based; details: read-out: Antiproliferative activity IC50, SK-OV-3
Description: as §4, §5

[3] = system: HCT116, colon cancer cell line; experiment: Antiproliferative activity, sulforhodamine-B (SRB) assay, HCT116; assay type: cell-based, human; details: 72 h exposure, SRB assay, mean ± S.D., >50 = less than 50% growth inhibition at 50 μM, read-out: Antiproliferative activity IC50, HCT116
Description: as §4, §5

[4] = 72 h exposure, SRB assay, mean ± S.D., >50 = less than 50% growth inhibition at 50 μM

SMILES | inhibition at 10 µM (human recombinant MAO A) | inhibition at 10 µM (human recombinant MAO B) | hBChE % inhibition at 10 μM (BChE from human serum) | inhibition at 10 µM (human recombinant AChE) | also measured
CN1CC[C@@]2(O)Oc3ccccc3[C@@H](O)[C@H]2C1 (relative stereo) [7a, (4aR*,10S*,10aR*)-2-Methyl-1,2,3,4,10,10a-hexahydro-4aH-chromeno[3,2-c]pyridine-4a,10-diol] | 14% | 22% | n.i. | 24% | 
CN1CC[C@@]2(O)Oc3ccc(Br)cc3[C@@H](O)[C@H]2C1 (relative stereo) [7c, (4aR*,10S*,10aR*)-8-Bromo-2-methyl-1,2,3,4,10,10a-hexahydro-4aH-chromeno[3,2-c]pyridine-4a,10-diol] | 21% | 35% |  |  | inhibition at 10 µM (BChE from human serum): 12%; hAChE % inhibition at 10 μM (human recombinant AChE): n.i.
CCOc1cccc2c1O[C@]1(O)CCN(C)C[C@@H]1[C@@H]2O (relative stereo) [7e, (4aR*,10S*,10aR*)-6-Ethoxy-2-methyl-1,2,3,4,10,10a-hexahydro-4aH-chromeno[3,2-c]pyridine-4a,10-diol] | 19% | 25% | n.i. |  | hAChE % inhibition at 10 μM (human recombinant AChE): n.i.
CN1CC[C@@]2(O)Oc3ccccc3[C@@H](O)[C@@H]2C1 (relative stereo) [8a, (4aR*,10S*,10aS*)-2-Methyl-1,2,3,4,10,10a-hexahydro-4aH-chromeno[3,2-c]pyridine-4a,10-diol] | 8% | 42% | n.i. | 22% | 
CN1CC[C@@]2(O)Oc3ccc(Br)cc3[C@@H](O)[C@@H]2C1 (relative stereo) [8c, (4aR*,10S*,10aS*)-8-Bromo-2-methyl-1,2,3,4,10,10a-hexahydro-4aH-chromeno[3,2-c]pyridine-4a,10-diol] | 14% | 15% | n.i. | 45% | 
O[C@@H]1c2ccccc2O[C@]2(O)CCN(Cc3ccccc3)C[C@@H]12 (relative stereo) [8e, (4aR*,10S*,10aS*)-2-Benzyl-1,2,3,4,10,10a-hexahydro-4aH-chromeno[3,2-c]pyridine-4a,10-diol] | 12% | 41% |  | 25% | inhibition at 10 µM (BChE from human serum): 19%
CN1CCc2oc3ccccc3c(=O)c2C1 [1a, 1,2,3,4-tetrahydro-2-methylchromeno[3,2-c]pyridin-10-one] | 15% | 29% | n.i. | 34% | 
CN1CC=C2Oc3ccc(Cl)cc3C=C2C1 [2a, 8-Chloro-2,3-dihydro-2-methyl-1H-chromeno[3,2-c]pyridine] |  | 45% | n.i. | 25% | IC50 (human recombinant MAO A): 1.18 ± 0.07 µM; Selectivity for MAO A over MAO B (human recombinant MAO A; from MAO A and MAO B inhibition data): about tenfold; IC50 ([1]; Homo sapiens, MCF7, 72 h): 48.1 ± 4.21 µM; IC50 ([2]; Homo sapiens, SK-OV-3, 72 h): > 50 µM
CN1C=Cc2oc3ccccc3c(=O)c2C1C#Cc1ccccc1 (centres unmarked) [3a, 2-Methyl-1-(phenylethinyl)-1H-chromeno[3,2-c]pyridine-10(2H)-one] | 35% |  |  |  | MAO B/A selectivity (human recombinant MAO B; from MAO B and MAO A inhibition data): more than twentyfold; IC50 (human recombinant MAO B; hMAO-B IC50, mean ± S.D., determined for compounds with more than 60% inhibition at 10 μM): 0.51 ± 0.021 µM; IC50 (BChE from human serum; mean ± S.D., determined for compounds with more than 60% inhibition at 10 μM, read-out: hBChE IC50): 8.42 ± 0.25 µM; IC50 (human recombinant AChE; mean ± S.D., determined for compounds with more than 60% inhibition at 10 μM, read-out: hAChE IC50): 6.79 ± 0.42 µM
CCOc1cccc2c(=O)c3c(oc12)C=CN(C(C)C)C3C#Cc1ccccc1 (centres unmarked) [3d, 6-Ethoxy-2-isopropyl-1-(phenylethynyl)-1,2-dihydro-10H-chromeno[3,2-c]pyridin-10-one] | 36% | 22% |  |  | inhibition at 10 µM (BChE from human serum): 10%; hAChE % inhibition at 10 μM (human recombinant AChE): n.i.
N.N.[Cl][Pt][Cl] [Cisplatin, reference compound] |  |  |  |  | IC50 [1, 4]: 4.8 ± 2.2 µM; IC50 [3]: 5.02 ± 2.12 µM; IC50 [2, 4]: 4.43 ± 0.32 µM
COc1cccc2c1C(=O)c1c(O)c3c(c(O)c1C2=O)C[C@@](O)(C(=O)CO)C[C@@H]3O[C@H]1C[C@H](N)[C@H](O)[C@H](C)O1 [Doxorubicin, doxorubicin, reference compound] |  |  |  |  | IC50 ([1]; Homo sapiens, MCF7, 72 h exposure, SRB assay, mean ± S.D., >50 = less than 50% growth inhibition at 50 μM): 0.18 ± 0.02 µM; IC50 ([3]; Homo sapiens, HCT-116): 0.38 ± 0.03 µM; IC50 ([2]; Homo sapiens, SK-OV-3, 72 h, 72 h exposure, SRB assay, mean ± S.D., >50 = less than 50% growth inhibition at 50 μM): 2.2 ± 0.02 µM
